Consider one molecule from patent US10519504B2, “Methods for treatment of oncological disorders using epimetabolic shifters, multidimensional intracellular molecules, or environmental influencers” (Berg LLC, priority 2009, dated 2019).

In one data set the test system is HDFa cells. The experiment in a line: OCR and ECAR, SeaHorse XF analyzer. In kind it is cell-based, human. The source says: (SeaHorse Biosciences Inc, North Billerica, Mass.).
In this experiment, the OCR and extracellular acidification rate (ECAR) in normal cells lines were obtained in the presence and absence of CoQ10 to determine baseline values. It was observed that in its native nutrient environment, the basal OCR rates in normal cells lines are different, and are usually a function of the physiological roles of the cells in the body. […]
Table 97 below describes the ECAR values (mpH/min) in HDFa cells in the presence or absence of CoQ10 under normoxic and hypoxic conditions at 5.5 mM and 22 mM glucose.

For a further data set, the system named is SKMEL-28 cells. As to the kind of experiment: 2-D gel electrophoresis proteomic analysis. It is filed as cell-based. Here is the method: Protein was isolated from the treated and control flask after 4, 8, 12, and 24 hours. For isolation of proteins, cells were washed three times with 5 mL of ice cold PBS at a pH of 7.4. The cells were then scraped in 3 mL of PBS, pelleted by centrifuge, and re-suspended in a lysis buffer at pH 7.4 (80 mM TRIS-HCl, 1% SDS, with protease and phosphotase inhibitors). Protein concentrations were quantified using the BCA method.
The gels were run in duplicate.
The first experimental set processed and evaluated by Western blot and 2-D gel electrophoresis was the skin cancer cell line SKMEL-28.
A comparative analysis of 943 spots across all twenty-four gels was performed, comparing the control sample against all of the treated samples. The analysis included the identification of spot changes over the time course due to increase, decrease, or post-translational modification.
The analysis found thirty-two statistically significant differential spot changes. […] The characterized peptides were searched against protein databases with Mascot and MSRAT software analysis to identify the protein (Table 2).

For data set [1] the following is noted: rats; Bhagavan et al.; cited from earlier work.
The test system of data set [2] is Pyruvate Dehydrogenase-B (PDH-E1). The experiment in a line: Western blot, Pyruvate Dehydrogenase beta levels. It is filed as cell-based, human. Here is the method:
The pyruvate kinase blots were stripped by incubating for 30 minutes with methanol, followed by two 10 minute washes with TBS-T, then 30 minutes of incubation with Stripping buffer at 50 deg C., and followed by two washes with 100 ml or more of TBS-T for 30′ each. The 2 blots were scanned in laser scanner to check for complete stripping. After making sure stripping of the antibody and the ECF reagent has worked, the blots were activated with methanol for 5 seconds, washed with water for 5 minutes, and TBST for 15 minutes. The blots are blocked for 1 hour with 5% blocking reagent in TBS-T at room temperature and then washed 3 times with TBS-T (1X−15′; 2X5′ each) and probed with the antibody for Pyruvate Dehydrogenase in 5% BSA (ABNOVA catalog #H00005162-M03) at 1:500 dilutions) overnight at 4 deg C. with shaking. After the overnight incubation with primary antibody for Pyruvate Dehydrogenase, the membranes were washed 3 times with TBS-T (1X−15′; 2X5′ each) and probed with the secondary antibody (antimouse; 1:10,000 dilution) for 1 h on the orbital tilting shaker at room temperature. […]
The levels of LDH and PDH were determined by probing the blots successively with primary antibodies for LDH and PDH, essentially as described above. […]
Background: In western blotting, separated proteins are transferred to a membrane and probed.

For `COC1=C(OC)C(=O)C(C/C=C(\C)CC/C=C(\C)CC/C=C(\C)CC/C=C(\C)CC/C=C(\C)CC/C=C(\C)CC/C=C(\C)CC/C=C(\C)CC/C=C(\C)CCC=C(C)C)=C(C)C1=O` [Q10, Coenzyme Q10], the ECAR came out at 5 mpH/min with HDFa cells (50 μM, Hypoxia (5.5 mM) glucose); 6 mpH/min in the data set on HDFa cells (50 μM, Hypoxia (22 mM) glucose); 6 mpH/min in the data set with HDFa cells (50 μM, Normoxia (5.5 mM) glucose); 5 mpH/min in the data set with HDFa cells (50 μM, Normoxia (22 mM) glucose); 5 mpH/min with HDFa cells (100 μM, Hypoxia (5.5 mM) glucose); 8 mpH/min in the data set on HDFa cells (100 μM, Hypoxia (22 mM) glucose). Further, the ECAR was 6 mpH/min in the data set with HDFa cells (100 μM, Normoxia (5.5 mM) glucose); 5 mpH/min with HDFa cells (100 μM, Normoxia (22 mM) glucose); “lowering of elevated ECAR to a value that was observed in untreated normoxic conditions” in the data set with HDFa cells (HDFa, high glucose hypoxic conditions). The ECAR values entry with HDFa cells (HDFa, normoxic and hypoxic, 5.5 mM and 22 mM glucose) is “minimal influence on ECAR values”. Further, the “Transaldolase 1 level” value in the data set on SKMEL-28 cells is recorded as “decrease of Transaldolase 1”. Moreover, the “orally-administered CoQ10 absorbed” value in data set [1] is 2-3%. For the same molecule, the “expression of PDH-E1” value in data set [2] (cancer cells) is “progressive increase in the expression of the PDH-E1 proteins”; in data set [2] (normal cells), “minimal changes in the normal cells”.
